Test results published in publication PMC4876673, “Antitrypanosomal activity of 5-nitro-2-aminothiazole-based compounds” (European Journal of Medicinal Chemistry, 2016).
Read-outs that look alike come from different tables or passages of the source.

Legend:
[1] = test system: T.b. rhodesiense, strain STIB 900 trypomastigotes; assay: In vitro activity against T. b. rhodesiense, strain STIB 900 trypomastigotes; type: cell-based, Trypanosoma brucei rhodesiense; conditions: for IC50: Trypanosoma brucei, read-out: T.b.r. IC50; for SI (T.b.r.): ratio IC50 in L6 cells/IC50 in T.b. rhodesiense
Protocol: (§1) Compounds in Table 1 were screened for antiparasitic activity against three trypanosomatids: T. cruzi, T. b. rhodesiense and Leishmania donovani. The concentration of compound that inhibits parasite growth by 50% (IC50) was calculated from dose response curves for each parasite (Table 1). In addition, compounds were tested for toxicity in L6 rat skeletal myoblasts, used as host cells for T. cruzi amastigotes, in order to calculate a selectivity index for each parasite (SI = IC50L6/IC50parasite) (Table 1).
(§2) In vitro activity against T. cruzi, T. b. rhodesiense, L. donovani and cytotoxicity assessment using L6 cells (rat skeletal myoblasts) was determined using a 96-well plate format as previously described. Data were analyzed with the graphic program Softmax Pro (Molecular Devices, Sunnyvale, CA, USA), which calculated IC50 values by linear regression from the sigmoidal dose inhibition curves.

[2] = test system: T. cruzi, strain Tulahuen C4 amastigotes; assay: In vitro activity against T. cruzi amastigotes in infected L6 cells; type: cell-based, Trypanosoma cruzi; conditions: for IC50: Trypanosoma cruzi, T. cruzi Tulahuen C4 amastigotes in L6 cells, read-out: T. c. IC50; for SI (T. c.): ratio IC50 in L6 cells/IC50 in T. cruzi; for Bnz/comp: ratio of T. cruzi IC50 of benznidazole to that of the compound
Protocol: (§3) In vitro activity against T. cruzi, T. b. rhodesiense, L. donovani and cytotoxicity assessment using L6 cells (rat skeletal myoblasts) was determined using a 96-well plate format as previously described [38]. Data were analyzed with the graphic program Softmax Pro (Molecular Devices, Sunnyvale, CA, USA), which calculated IC50 values by linear regression from the sigmoidal dose inhibition curves.

[3] = test system: L. donovani axenic, strain MHOM-ET-67/L82 amastigotes; assay: In vitro activity against L. donovani axenic amastigotes; type: cell-based, Leishmania donovani; conditions: for IC50: Leishmania donovani, L. donovani axenic amastigotes MHOM-ET-67/L82, read-out: L.d. IC50; for SI (L.d.): ratio IC50 in L6 cells/IC50 in L. donovani; for activity class against L. donovani: L. donovani amastigotes
Protocol: as §3

[4] = test system: L6 cells (rat skeletal myoblasts); assay: Cytotoxicity in the host L6 cells; type: cell-based; conditions: read-out: Cyt. L6 IC50
Protocol: as §1, §2

T. b. brucei wild type = assay: T. brucei brucei antiproliferating assay, wild type bloodstream form; type: cell-based; conditions: Trypanosoma brucei, 72 h
Protocol: (§4) To further determine whether NTR plays a role in metabolizing the substrates within the parasite, the above subset of compounds were phenotypically screened against BSF T. b. brucei expressing wild type or elevated levels of TbNTR.
(§5) Where appropriate, induction of the TbNTR was carried out by adding tetracycline (1 μg/mL). After incubation for 3 days at 37 °C, resazurin (2.5 μg per well) was added to each well and the plates incubated for a further 8 h. The cell density of each culture was determined as described before [26] and the IC50 established.

[5] = test system: TbNTR overexpressing T. b. brucei; assay: microbe, parasite or virus in culture; type: cell-based, Trypanosoma brucei brucei; conditions: for Ratio –tet/+tet: IC50 −tet / IC50 +tet; for IC50: Trypanosoma brucei
Protocol: as §4, §5

[6] = T.b. rhodesiense STIB 900 trypomastigotes
[7] = read-out: IC50 value T.b. brucei Wild type, BSF, wild type, 3 days
[8] = read-out: IC50 value T.b. brucei TbNTR (+tet)
[9] = read-out: IC50 value T.b. brucei TbNTR (−tet)

Row | SMILES | IC50 [1] [µM] | IC50 [1, 6] [µM] | SI (T.b.r.) [1] | IC50 [2] [µM] | SI (T. c.) [2] | Bnz/comp [2] | IC50 [3] [µM] | SI (L.d.) [3] | IC50 [4] [µM] | melting point | activity class against L. donovani [3] | IC50 (T. b. brucei wild type; [7]) [µM] | Ratio –tet/+tet [5] | IC50 [5, 8] [µM] | IC50 [5, 9] [µM] | fold less potent against T. cruzi than the corresponding 3-nitrotriazole-based analog ([2]; comparison with analogs of ref 24) | IC50 (T. b. brucei wild type; BSF, wild type, 3 days, read-out: IC50 value T.b. brucei Wild type) [µM]
1 | Nc1nc(N)nc(Nc2ccc([As]3SCC(CO)S3)cc2)n1 (stereo not shown) [Melars., Melarsoprol, reference compound] | 0.009 ± 0.001 | – | – | – | – | – | – | – | – | – | – | – | – | – | – | – | –
2 | Cc1ccc(N2CCN(CC(=O)Nc3ncc([N+](=O)[O-])s3)CC2)cc1 [Compound 2, N-(5-nitrothiazol-2-yl)-2-(4-(p-tolyl)piperazin-1-yl)acetamide] | – | 14.4 | 8.8 | 9.31 | 14 | 0.2 | 41.4 | 3 | 126 | 160 to 161 °C (dec.) | – | – | – | – | – | – | –
3 | O=C(COc1ccc(Oc2ccccc2)cc1)Nc1ncc([N+](=O)[O-])s1 [Compound 12, N-(5-nitrothiazol-2-yl)-2-(4-phenoxyphenoxy)acetamide] | – | 28.4 | – | 32.6 | – | 0.1 | 5.4 | – | 52.7 | – | moderately active (between 1.0 and 6.0 μM) | – | – | – | – | – | –
4 | O=C(Nc1ncc([N+](=O)[O-])s1)c1ccc(-c2ccccc2)cc1 [Compound 8, N-(5-nitrothiazol-2-yl)-[1,1′-biphenyl]-4-carboxamide] | – | 14.3 | <1 | 2.52 | 2.6 | 0.9 | 104 | <1 | 6.57 | > 230 °C | – | 1.61 ± 0.396 | 2.1 | 2.18 ± 0.085 | 4.59 ± 0.149 | – | –
5 | O=C(CN1CCN(c2ccc(Cl)c(Cl)c2)CC1)Nc1ncc([N+](=O)[O-])s1 [Compound 5, 2-(4-(3,4-dichlorophenyl)piperazin-1-yl)-N-(5-nitrothiazol-2-yl)acetamide] | – | 10.8 | 4.2 | 1.53 | 30 | 1.4 | 7.55 | 6.1 | 45.7 | 169 to 171 °C | – | 1.36 ± 0.091 | 2.6 | 0.747 ± 0.075 | 1.96 ± 0.101 | – | –
6 | O=C(COc1cccc(Oc2ccccc2)c1)Nc1ncc([N+](=O)[O-])s1 [Compound 10, N-(5-nitrothiazol-2-yl)-2-(3-phenoxyphenoxy)acetamide] | – | 31 | 1.8 | 34.6 | 1.6 | 0.1 | 5.4 | 10 | 54.9 | 151 to 153 °C | moderately active (between 1.0 and 6.0 μM) | – | – | – | – | – | –
7 | O=C(CN1CCN(c2ccccn2)CC1)Nc1ncc([N+](=O)[O-])s1 [Compound 7, N-(5-nitrothiazol-2-yl)-2-(4-(pyridin-2-yl)piperazin-1-yl)acetamide] | – | 13.3 | 2.2 | 4.97 | 5.9 | 0.4 | 64.9 | <1 | 29.6 | 175 to 180 °C (dec.) | – | – | – | – | – | – | –
8 | COc1ccc(N2CCN(CC(=O)Nc3ncc([N+](=O)[O-])s3)CC2)cc1 [Compound 4, 2-(4-(4-methoxyphenyl)piperazin-1-yl)-N-(5-nitrothiazol-2-yl)acetamide] | – | 13.8 | 10 | 3.06 | – | 0.7 | 68.2 | 2.1 | 143 | 154 to 156 °C (dec.) | – | – | – | – | – | – | –
9 | O=C(COc1ccc(-c2ccccc2)cc1)Nc1ncc([N+](=O)[O-])s1 [Compound 11, 2-([1,1′-biphenyl]-4-yloxy)-N-(5-nitrothiazol-2-yl)acetamide] | – | 40.8 | 1.3 | 18.4 | 3 | 0.1 | 10.5 | 5.2 | 54.9 | 196 to 198 °C | – | 3.75 ± 0.383 | 1.5 | 2.2 ± 0.1 | 3.25 ± 0.142 | – | –
10 | O=C(COc1cccc(-c2ccccc2)c1)Nc1ncc([N+](=O)[O-])s1 [Compound 9, 2-([1,1′-biphenyl]-3-yloxy)-N-(5-nitrothiazol-2-yl)acetamide] | – | 28.7 | 1.7 | 22.8 | 2.2 | 0.1 | 4.27 | 12 | 49.4 | 148 to 150 °C | moderately active (between 1.0 and 6.0 μM) | – | – | – | – | – | –
11 | O=C(CN1CCN(C(c2ccccc2)c2ccc(Cl)cc2)CC1)Nc1ncc([N+](=O)[O-])s1 (stereo not shown) [Compound 6, 2-(4-((4-chlorophenyl)(phenyl)methyl)piperazin-1-yl)-N-(5-nitrothiazol-2-yl)acetamide] | – | 17.4 | <1 | 0.571 | 23 | 3.8 | 3.39 | 3.8 | 12.9 | 92 to 95 °C | moderately active (between 1.0 and 6.0 μM) | 1.47 ± 0.104 | 2.6 | 0.636 ± 0.022 | 1.64 ± 0.069 | about 8 fold | –
12 | CC1CS(=O)(=O)CCN1/N=C/c1ccc([N+](=O)[O-])o1 (stereo not shown) [nfx, nifurtimox, reference compound] | – | – | – | – | – | – | – | – | – | – | – | – | 7.3 | 0.869 ± 0.046 | 6.36 ± 0.119 | – | 3.98 ± 0.15
13 | O=C(CN1CCN(c2ccc(C(F)(F)F)cc2)CC1)Nc1ncc([N+](=O)[O-])s1 [Compound 3, N-(5-nitrothiazol-2-yl)-2-(4-(4-(trifluoromethyl)phenyl)piperazin-1-yl)acetamide] | – | 8.42 | 5.6 | 1.73 | 27 | 1.3 | 12.7 | 3.7 | 47.1 | 173 to 175 °C | – | 1.02 ± 0.045 | 2.8 | 0.526 ± 0.024 | 1.46 ± 0.113 | – | –
